Data as given in US20160324992A1, “IDENTIFICATION AND TREATMENT OF VULNERABLE PLAQUES” (OTTAWA HEART INSTITUTE RESEARCH CORPORATION, priority 2015, published 2016).
Several values for one entry are separate records, joined by “and”; a condition that tells them apart may be missing. Equal values may be shown once.

Tested on: ApoE−/− mice with established atherosclerosis
Assay: Atherosclerosis study: time-release pellets in Western diet fed ApoE−/− mice
Format: in vivo, mouse
Procedure: Atherosclerosis Studies. All animal experiments were performed in accordance with the Animal Care and Use Committee, University of Ottawa, Canada. Eight week old Apo E^−/− mice (total n=17 mice) were fed an adjusted calories diet (21% fat; 0.2% cholesterol, Harlan Teklad) for 4 weeks to induce atherosclerotic progression. Mice were then injected with time-release placebo or Nec-1s tablets (2 mg/kg/day), which were synthesized by Innovative Research of America, USA. Mice were euthanized after 6 weeks of treatment, perfused with saline and aortic roots were embedded in OCT medium and frozen. Aortic roots were sectioned (10 μm) and stained with hematoxylin and eosin for lesion area and necrotic core quantification, and a minimum of 10 sections per animal were measured across the length of the entire aortic root. For en face aortic lesion quantifications, aortas were dissected removing all branching vessels down to the femoral bifurcation and then sliced ventrally and images of aortas were digitally captured using ImagePro™. Lesion areas within the entire length of the aorta were quantified using Image J™ and expressed relative to the total aortic surface area. Immunohistochemistry for vascular smooth muscle cells was performed using a primary antibody for a-smooth muscle actin (monoclonal, Sigma) conjugated to alkaline phosphatase and visualized using SigmaFAST Red (Sigma). Statistical significance between the two groups were analyzed using Students' t-test (p<0.05).
Atherosclerosis Studies. All animal experiments were performed in accordance with the Animal Care and Use Committee, University of Ottawa, Canada. Eight week old apoE−/− mice (total n=17 mice) were fed an adjusted calories diet (21% fat; 0.2% cholesterol, Harlan Teklad) for 4 weeks to induce atherosclerotic progression. Mice were then injected with time-release placebo or stable Necrostatin-1 (Nec-1)15 tablets (2 mg/kg/day), which were synthesized by Innovative Research of America, USA. Mice were euthanized after 6 weeks of treatment, perfused with saline and aortic roots were embedded in OCT medium and frozen. Aortic roots were sectioned (10 μm) and stained with hematoxylin and eosin for lesion area and necrotic core quantification, and a minimum of 10 sections per animal were measured across the length of the entire aortic root. For en face aortic lesion quantifications, aortas were dissected removing all branching vessels down to the femoral bifurcation and then sliced ventrally and images of aortas were digitally captured using ImageProTM. Lesion areas within the entire length of the aorta were quantified using Image JTM and expressed relative to the total aortic surface area. Immunohistochemistry to visualize macrophages and smooth muscle cells was performed using primary antibodies to CD68 (rat monoclonal, Serotec) or phosho-MLKL (rabbit polyclonal, Abcam) with a secondary conjugated to biotin and α-smooth muscle actin (monoclonal, Sigma) conjugated to alkaline phosphatase and visualized using DAB or SigmaFAST Red (Sigma), respectively. Image J was used to quantify positive staining area and statistical significance between the two groups were analyzed using Students' t-test (p<0.05)

In the case of `CN1C(=O)C(Cc2c[nH]c3ccccc23)NC1=S` (stereo not shown) [Nec-1, necrostatin-1], the “body weight (in words)” value (2 mg/kg/day, 6 weeks, data not shown) is reported as “not affected”, the “CD68+ macrophage area, % of lesion area” value (2 mg/kg/day, 6 weeks, placebo 34.4%±3.2, p=ns) is reported as 43.5%±3.7 and the “increase of smooth muscle actin area within the aortic sinus” value (2 mg/kg/day, 6 weeks, vs placebo) is reported as 70%. The “atherosclerotic lesion area versus placebo (in words)” value (Western diet 4 weeks then 2 mg/kg/day for 6 weeks) was “reduced lesion area in the aortic sinus and aorta”, the “reduction of aortic root lesion area compared to controls” value (Western diet, 2 mg/kg/day, 6 weeks) was 27% and the “aortic root lesion area” value (Western diet, 2 mg/kg/day, 6 weeks, placebo 0.50±0.03 mm^2) was 0.37±0.05 mm^2. The “en face lesion area as a % of total aorta area” value (Western diet, 2 mg/kg/day, 6 weeks, placebo 9.9±0.9%) was 3.1±0.3%, the “reduction of en face lesion burden compared to placebo” value (Western diet, time-release pellet 2 mg/kg/day, 6 weeks, ascending and descending aorta) was 68% and the “reduction of pMLKL positive area compared to placebo controls” value (aortic sinus lesions, 2 mg/kg/day, 6 weeks) was 63%. The “reduction of lesion necrotic core area compared to placebo” value (aortic sinus, 2 mg/kg/day, 6 weeks) was 62.6% and 62%.
